Assays:
[1] = tested on: ZIKV BeH8 strain; experiment: Antiviral activity against the Zika virus in HeLa cells; assay type: cell-based; conditions: for concentration at which infection of the Hela cells by the strain ZIKV BeH-8 is prevented: 24 h, qRT-PCR; for concentration at which infection of the Hela cells by the strain ZIKV BeH-8 is prevented / IC50: HeLa cells; for IC50: BeH-8 strain, MOI=0.1, 24 h; for active on infectious model ZIKV: summary table
[2] = target: PTK2 (FAK) (Homo sapiens (Human), UniProt Q05397); experiment: Kinase panel Z'-LYTE/Adapta SelectScreen; assay type: biochemical; conditions: 100 nM in 1% DMSO
Protocol: (§1) The inhibitory activity of the compounds on a panel of kinases including, inter alia, AXL and FLT3 was evaluated by Thermo Fisher Scientific using Z′-LYTE® and Adapta® Select Screen technology.
(§2) The fluorescence-based biochemical test uses coupled enzymes and is based on the difference in sensitivity of the phosphorylated and non-phosphorylated peptides to proteolytic cleavage. The peptide substrate is labeled with 2 fluorophores—one at each end—allowing fluorescence transfer (FRET).
(§3) Compounds 1, 2 and 3 are tested in wells at the final concentration of 100 nM in 1% DMSO.

[3] = target: CSK (Homo sapiens (Human), UniProt P41240); experiment: Kinase panel Z'-LYTE/Adapta SelectScreen; assay type: biochemical; conditions: 100 nM in 1% DMSO
Protocol: as §1, §2, §3

[4] = target: FGFR1 (Homo sapiens (Human), UniProt P11362); experiment: Kinase panel Z'-LYTE/Adapta SelectScreen; assay type: biochemical; conditions: 100 nM in 1% DMSO
Protocol: as §1, §2, §3

[5] = target: ALK (Homo sapiens (Human), UniProt Q9UM73); experiment: Kinase panel Z'-LYTE/Adapta SelectScreen; assay type: biochemical; conditions: 100 nM in 1% DMSO
Protocol: as §1, §2, §3

[6] = target: FLT1 (VEGFR1) (Homo sapiens (Human), UniProt P17948); experiment: Kinase panel Z'-LYTE/Adapta SelectScreen; assay type: biochemical; conditions: 100 nM in 1% DMSO
Protocol: as §1, §2, §3

[7] = target: PDGFRA (PDGFR alpha) (Homo sapiens (Human), UniProt P16234); experiment: Kinase panel Z'-LYTE/Adapta SelectScreen; assay type: biochemical; conditions: 100 nM in 1% DMSO
Protocol: as §1, §2, §3

[8] = target: RPS6KA1 (RSX1) (Homo sapiens (Human), UniProt Q15418); experiment: Kinase panel Z'-LYTE/Adapta SelectScreen; assay type: biochemical; conditions: 100 nM in 1% DMSO
Protocol: as §1, §2, §3

[9] = target: YES1 (Homo sapiens (Human), UniProt P07947); experiment: Kinase panel Z'-LYTE/Adapta SelectScreen; assay type: biochemical; conditions: 100 nM in 1% DMSO
Chain of YES1 (P07947 whole entry): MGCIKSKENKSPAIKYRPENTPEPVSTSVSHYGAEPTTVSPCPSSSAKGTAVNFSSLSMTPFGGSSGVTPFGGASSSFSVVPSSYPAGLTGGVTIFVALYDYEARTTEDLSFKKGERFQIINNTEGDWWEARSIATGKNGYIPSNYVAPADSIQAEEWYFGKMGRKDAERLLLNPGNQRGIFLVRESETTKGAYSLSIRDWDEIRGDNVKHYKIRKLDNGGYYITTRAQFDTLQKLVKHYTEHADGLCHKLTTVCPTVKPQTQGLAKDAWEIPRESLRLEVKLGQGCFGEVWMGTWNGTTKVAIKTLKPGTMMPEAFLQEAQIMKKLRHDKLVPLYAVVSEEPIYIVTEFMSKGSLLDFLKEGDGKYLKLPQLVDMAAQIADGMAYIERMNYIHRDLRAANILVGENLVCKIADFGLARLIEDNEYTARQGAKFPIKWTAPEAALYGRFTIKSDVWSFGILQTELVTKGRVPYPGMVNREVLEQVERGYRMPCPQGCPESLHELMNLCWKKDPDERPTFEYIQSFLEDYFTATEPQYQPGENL
Protocol: as §1, §2, §3

[10] = target: TYK2 (Homo sapiens (Human), UniProt P29597); experiment: Kinase panel Z'-LYTE/Adapta SelectScreen; assay type: biochemical; conditions: 100 nM in 1% DMSO
Protocol: as §1, §2, §3

[11] = target: CHUK (IKKalpha) (Homo sapiens (Human), UniProt O15111); experiment: Kinase panel Z'-LYTE/Adapta SelectScreen; assay type: biochemical; conditions: 100 nM in 1% DMSO
Protocol: as §1, §2, §3

[12] = target: IKBKB (IKK beta) (Homo sapiens (Human), UniProt O14920); experiment: Kinase panel Z'-LYTE/Adapta SelectScreen; assay type: biochemical; conditions: 100 nM in 1% DMSO
Protocol: as §1, §2, §3

[13] = target: SRC (Homo sapiens (Human), UniProt P12931); experiment: Kinase panel Z'-LYTE/Adapta SelectScreen; assay type: biochemical; conditions: 100 nM in 1% DMSO
Protocol: as §1, §2, §3

[14] = target: PDGFRB (PDGFR beta) (Homo sapiens (Human), UniProt P09619); experiment: Kinase panel Z'-LYTE/Adapta SelectScreen; assay type: biochemical; conditions: 100 nM in 1% DMSO
Protocol: as §1, §2, §3

[15] = target: ROS1 (Homo sapiens (Human), UniProt P08922); experiment: Kinase panel Z'-LYTE/Adapta SelectScreen; assay type: biochemical; conditions: 100 nM in 1% DMSO
Protocol: as §1, §2, §3

[16] = target: PRKAA (PKA) (Homo sapiens (Human), UniProt P17612); experiment: Kinase panel Z'-LYTE/Adapta SelectScreen; assay type: biochemical; conditions: 100 nM in 1% DMSO
Protocol: as §1, §2, §3

[17] = target: FGFR2 (Homo sapiens (Human), UniProt P21802); experiment: Kinase panel Z'-LYTE/Adapta SelectScreen; assay type: biochemical; conditions: 100 nM in 1% DMSO
Protocol: as §1, §2, §3

[18] = target: AURKA (Aurora A) (Homo sapiens (Human), UniProt O14965); experiment: Kinase panel Z'-LYTE/Adapta SelectScreen; assay type: biochemical; conditions: 100 nM in 1% DMSO
Chain of AURKA (Aurora A) (O14965 whole entry): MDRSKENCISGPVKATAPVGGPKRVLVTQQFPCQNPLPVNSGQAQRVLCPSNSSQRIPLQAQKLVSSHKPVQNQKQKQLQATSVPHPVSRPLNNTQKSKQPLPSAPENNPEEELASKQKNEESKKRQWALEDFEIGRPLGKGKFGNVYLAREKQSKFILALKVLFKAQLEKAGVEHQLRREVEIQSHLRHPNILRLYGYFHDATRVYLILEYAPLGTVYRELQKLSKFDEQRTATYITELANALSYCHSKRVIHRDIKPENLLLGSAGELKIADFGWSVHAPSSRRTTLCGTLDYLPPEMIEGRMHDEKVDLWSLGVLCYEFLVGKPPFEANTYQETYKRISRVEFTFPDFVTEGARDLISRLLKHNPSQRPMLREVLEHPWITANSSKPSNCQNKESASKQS
Protocol: as §1, §2, §3

[19] = target: FLT4 (VEGFR3) (Homo sapiens (Human), UniProt P35916); experiment: Kinase panel Z'-LYTE/Adapta SelectScreen; assay type: biochemical; conditions: 100 nM in 1% DMSO
Chain of FLT4 (VEGFR3) (P35916 25-1363): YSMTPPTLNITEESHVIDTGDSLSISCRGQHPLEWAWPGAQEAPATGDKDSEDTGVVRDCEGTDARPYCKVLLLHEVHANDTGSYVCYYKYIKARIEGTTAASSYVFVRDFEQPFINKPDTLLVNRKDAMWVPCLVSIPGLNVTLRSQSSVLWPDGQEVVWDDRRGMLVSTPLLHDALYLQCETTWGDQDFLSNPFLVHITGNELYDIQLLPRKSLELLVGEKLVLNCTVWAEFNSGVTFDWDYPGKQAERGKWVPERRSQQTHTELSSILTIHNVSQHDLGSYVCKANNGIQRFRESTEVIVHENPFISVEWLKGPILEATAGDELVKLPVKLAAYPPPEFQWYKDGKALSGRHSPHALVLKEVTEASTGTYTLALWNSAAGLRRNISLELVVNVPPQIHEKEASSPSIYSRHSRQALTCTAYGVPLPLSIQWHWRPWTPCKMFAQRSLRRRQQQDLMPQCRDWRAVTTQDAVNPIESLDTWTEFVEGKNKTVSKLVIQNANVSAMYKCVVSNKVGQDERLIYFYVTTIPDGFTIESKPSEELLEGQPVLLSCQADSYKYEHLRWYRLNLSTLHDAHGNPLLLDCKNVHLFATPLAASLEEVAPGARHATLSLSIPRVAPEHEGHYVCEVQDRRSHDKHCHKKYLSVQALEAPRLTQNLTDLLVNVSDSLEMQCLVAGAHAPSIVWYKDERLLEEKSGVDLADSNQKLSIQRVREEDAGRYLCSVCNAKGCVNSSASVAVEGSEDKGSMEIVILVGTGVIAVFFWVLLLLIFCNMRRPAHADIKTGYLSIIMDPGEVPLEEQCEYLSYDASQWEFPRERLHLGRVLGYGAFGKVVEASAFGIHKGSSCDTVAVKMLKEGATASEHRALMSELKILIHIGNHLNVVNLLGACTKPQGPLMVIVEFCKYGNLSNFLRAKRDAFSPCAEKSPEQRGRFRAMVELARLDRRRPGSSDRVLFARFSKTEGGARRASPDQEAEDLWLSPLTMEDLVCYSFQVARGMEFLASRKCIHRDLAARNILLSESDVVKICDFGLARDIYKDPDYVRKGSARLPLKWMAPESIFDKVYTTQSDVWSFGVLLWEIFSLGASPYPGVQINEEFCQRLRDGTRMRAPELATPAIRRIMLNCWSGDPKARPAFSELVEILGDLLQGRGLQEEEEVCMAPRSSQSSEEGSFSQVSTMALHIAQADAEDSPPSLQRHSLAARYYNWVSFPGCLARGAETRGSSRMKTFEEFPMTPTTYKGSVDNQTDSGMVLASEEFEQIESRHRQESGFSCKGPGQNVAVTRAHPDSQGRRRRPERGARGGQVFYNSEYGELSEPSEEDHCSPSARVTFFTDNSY
Protocol: as §1, §2, §3

[20] = target: MERTK (cMER) (Homo sapiens (Human), UniProt Q12866); experiment: Kinase panel Z'-LYTE/Adapta SelectScreen; assay type: biochemical; conditions: 100 nM in 1% DMSO
Protocol: as §1, §2, §3

[21] = target: JAK2 (Homo sapiens (Human), UniProt O60674); experiment: Kinase panel Z'-LYTE/Adapta SelectScreen; assay type: biochemical; conditions: 100 nM in 1% DMSO
Protocol: as §1, §2, §3

[22] = target: BTK (Homo sapiens (Human), UniProt Q06187); experiment: Kinase panel Z'-LYTE/Adapta SelectScreen; assay type: biochemical; conditions: 100 nM in 1% DMSO
Protocol: as §1, §2, §3

[23] = target: NTRK2 (TRKB) (Homo sapiens (Human), UniProt Q16620); experiment: Kinase panel Z'-LYTE/Adapta SelectScreen; assay type: biochemical; conditions: 100 nM in 1% DMSO
Protocol: as §1, §2, §3

[24] = target: MET (cMet) (Homo sapiens (Human), UniProt P08581); experiment: Kinase panel Z'-LYTE/Adapta SelectScreen; assay type: biochemical; conditions: 100 nM in 1% DMSO
Protocol: as §1, §2, §3

[25] = target: KIT (Homo sapiens (Human), UniProt P10721); experiment: Kinase panel Z'-LYTE/Adapta SelectScreen; assay type: biochemical; conditions: 100 nM in 1% DMSO
Protocol: as §1, §2, §3

[26] = target: TYRO3 (RSE) (Homo sapiens (Human), UniProt Q06418); experiment: Kinase panel Z'-LYTE/Adapta SelectScreen; assay type: biochemical; conditions: 100 nM in 1% DMSO
Protocol: as §1, §2, §3

[27] = target: TEK (Tie2) (Homo sapiens (Human), UniProt Q02763); experiment: Kinase panel Z'-LYTE/Adapta SelectScreen; assay type: biochemical; conditions: 100 nM in 1% DMSO
Protocol: as §1, §2, §3

[28] = target: ROCK2 (Homo sapiens (Human), UniProt O75116); experiment: Kinase panel Z'-LYTE/Adapta SelectScreen; assay type: biochemical; conditions: 100 nM in 1% DMSO
Protocol: as §1, §2, §3

[29] = target: CSF1R (FMS) (Homo sapiens (Human), UniProt P07333); experiment: Kinase panel Z'-LYTE/Adapta SelectScreen; assay type: biochemical; conditions: 100 nM in 1% DMSO
Protocol: as §1, §2, §3

[30] = target: JAK3 (Homo sapiens (Human), UniProt P52333); experiment: Kinase panel Z'-LYTE/Adapta SelectScreen; assay type: biochemical; conditions: 100 nM in 1% DMSO
Protocol: as §1, §2, §3

[31] = target: AURKB (Aurora B) (Homo sapiens (Human), UniProt Q96GD4); experiment: Kinase panel Z'-LYTE/Adapta SelectScreen; assay type: biochemical; conditions: 100 nM in 1% DMSO
Chain of AURKB (Aurora B) (Q96GD4 whole entry): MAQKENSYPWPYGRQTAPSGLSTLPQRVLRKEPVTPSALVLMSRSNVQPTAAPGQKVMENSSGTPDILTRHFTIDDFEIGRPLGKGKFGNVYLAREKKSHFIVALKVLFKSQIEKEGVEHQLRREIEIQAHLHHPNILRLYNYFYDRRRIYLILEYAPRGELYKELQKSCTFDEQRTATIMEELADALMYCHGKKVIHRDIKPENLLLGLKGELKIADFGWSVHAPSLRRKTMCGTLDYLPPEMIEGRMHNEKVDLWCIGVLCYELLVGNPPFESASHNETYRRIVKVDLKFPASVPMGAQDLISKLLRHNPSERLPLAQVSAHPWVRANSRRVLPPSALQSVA
Protocol: as §1, §2, §3

[32] = target: LCK (Homo sapiens (Human), UniProt P06239); experiment: Kinase panel Z'-LYTE/Adapta SelectScreen; assay type: biochemical; conditions: 100 nM in 1% DMSO
Chain of LCK (P06239 whole entry): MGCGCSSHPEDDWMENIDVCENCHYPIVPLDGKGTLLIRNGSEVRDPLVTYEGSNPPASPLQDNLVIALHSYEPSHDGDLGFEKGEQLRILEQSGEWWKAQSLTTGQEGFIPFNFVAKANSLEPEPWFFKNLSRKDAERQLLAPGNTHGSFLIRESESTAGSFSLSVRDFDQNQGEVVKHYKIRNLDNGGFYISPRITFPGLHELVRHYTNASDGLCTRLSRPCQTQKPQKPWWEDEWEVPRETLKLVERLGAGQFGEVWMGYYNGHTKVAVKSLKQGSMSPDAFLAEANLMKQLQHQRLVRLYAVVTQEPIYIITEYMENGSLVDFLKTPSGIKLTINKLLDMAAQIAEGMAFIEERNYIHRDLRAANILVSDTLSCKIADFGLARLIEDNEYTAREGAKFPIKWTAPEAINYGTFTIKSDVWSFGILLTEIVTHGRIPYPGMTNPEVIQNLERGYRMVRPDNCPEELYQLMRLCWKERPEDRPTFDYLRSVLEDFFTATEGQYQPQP
Protocol: as §1, §2, §3

[33] = target: NUK1 (ARK5) (Homo sapiens (Human), UniProt O60285); experiment: Kinase panel Z'-LYTE/Adapta SelectScreen; assay type: biochemical; conditions: 100 nM in 1% DMSO
Protocol: as §1, §2, §3

[34] = target: NTRK1 (TRKA) (Homo sapiens (Human), UniProt P04629); experiment: Kinase panel Z'-LYTE/Adapta SelectScreen; assay type: biochemical; conditions: 100 nM in 1% DMSO
Protocol: as §1, §2, §3

[35] = target: MAPK1 (ERK2) (Homo sapiens (Human), UniProt P28482); experiment: Kinase panel Z'-LYTE/Adapta SelectScreen; assay type: biochemical; conditions: 100 nM in 1% DMSO
Chain of MAPK1 (ERK2) (P28482 whole entry): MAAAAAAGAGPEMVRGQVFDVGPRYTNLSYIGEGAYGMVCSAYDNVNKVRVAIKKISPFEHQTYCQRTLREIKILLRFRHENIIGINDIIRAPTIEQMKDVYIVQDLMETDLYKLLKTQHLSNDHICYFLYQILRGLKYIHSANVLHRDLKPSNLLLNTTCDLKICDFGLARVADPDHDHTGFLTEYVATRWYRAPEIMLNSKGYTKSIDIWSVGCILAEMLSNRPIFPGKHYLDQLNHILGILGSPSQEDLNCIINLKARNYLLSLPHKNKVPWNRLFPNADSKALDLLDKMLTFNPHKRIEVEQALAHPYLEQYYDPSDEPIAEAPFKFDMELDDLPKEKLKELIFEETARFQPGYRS
Protocol: as §1, §2, §3

[36] = target: KDR (VEGFR2) (Homo sapiens (Human), UniProt P35968); experiment: Kinase panel Z'-LYTE/Adapta SelectScreen; assay type: biochemical; conditions: 100 nM in 1% DMSO
Chain of KDR (VEGFR2) (P35968 20-1356): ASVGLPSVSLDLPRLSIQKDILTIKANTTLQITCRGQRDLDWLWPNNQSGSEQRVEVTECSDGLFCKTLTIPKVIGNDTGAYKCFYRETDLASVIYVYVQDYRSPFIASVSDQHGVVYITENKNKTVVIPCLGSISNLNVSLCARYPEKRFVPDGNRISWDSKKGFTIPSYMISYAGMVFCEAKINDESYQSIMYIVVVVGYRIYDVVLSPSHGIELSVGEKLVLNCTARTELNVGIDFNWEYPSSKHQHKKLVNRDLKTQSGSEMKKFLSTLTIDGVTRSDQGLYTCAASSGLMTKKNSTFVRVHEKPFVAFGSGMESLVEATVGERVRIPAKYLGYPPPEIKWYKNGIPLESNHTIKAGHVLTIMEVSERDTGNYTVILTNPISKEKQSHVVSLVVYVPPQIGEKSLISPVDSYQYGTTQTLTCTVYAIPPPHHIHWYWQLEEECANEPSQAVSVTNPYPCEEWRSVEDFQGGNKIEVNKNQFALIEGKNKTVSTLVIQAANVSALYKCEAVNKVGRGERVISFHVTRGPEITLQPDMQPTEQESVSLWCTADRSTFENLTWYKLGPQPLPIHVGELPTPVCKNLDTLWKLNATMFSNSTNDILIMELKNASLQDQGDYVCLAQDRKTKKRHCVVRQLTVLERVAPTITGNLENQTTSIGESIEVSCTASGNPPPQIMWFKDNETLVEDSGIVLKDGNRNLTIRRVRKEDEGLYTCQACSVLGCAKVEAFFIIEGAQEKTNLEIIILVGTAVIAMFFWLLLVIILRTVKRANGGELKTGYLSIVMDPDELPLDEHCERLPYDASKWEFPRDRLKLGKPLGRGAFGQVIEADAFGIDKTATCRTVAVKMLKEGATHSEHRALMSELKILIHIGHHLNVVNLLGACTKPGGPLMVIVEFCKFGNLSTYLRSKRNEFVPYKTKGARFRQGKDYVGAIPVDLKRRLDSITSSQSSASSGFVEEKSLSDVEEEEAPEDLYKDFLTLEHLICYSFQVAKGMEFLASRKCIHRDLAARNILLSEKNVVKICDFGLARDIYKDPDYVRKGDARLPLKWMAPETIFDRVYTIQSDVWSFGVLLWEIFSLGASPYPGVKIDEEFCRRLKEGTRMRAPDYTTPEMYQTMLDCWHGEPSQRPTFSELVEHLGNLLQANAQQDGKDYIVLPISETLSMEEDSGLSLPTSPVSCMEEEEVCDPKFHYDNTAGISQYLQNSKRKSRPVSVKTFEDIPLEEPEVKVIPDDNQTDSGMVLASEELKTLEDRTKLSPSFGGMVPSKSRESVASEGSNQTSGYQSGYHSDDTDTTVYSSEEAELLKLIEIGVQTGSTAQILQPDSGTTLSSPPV
Protocol: as §1, §2, §3

SMILES | concentration at which infection of the Hela cells by the strain ZIKV BeH-8 is prevented [1] | Percentage inhibition PTK2 (FAK) [2] [%] | Percentage inhibition CSK [3] [%] | Percentage inhibition FGFR1 [4] [%] | Percentage inhibition ALK [5] [%] | Percentage inhibition FLT1 (VEGFR1) [6] [%] | Percentage inhibition PDGFRA (PDGFR alpha) [7] [%] | Percentage inhibition RPS6KA1 (RSX1) [8] [%] | Percentage inhibition YES1 [9] [%] | Percentage inhibition TYK2 [10] [%] | Percentage inhibition CHUK (IKKalpha) [11] [%] | Percentage inhibition IKBKB (IKK beta) [12] [%] | Percentage inhibition SRC [13] [%] | Percentage inhibition PDGFRB (PDGFR beta) [14] [%] | Percentage inhibition ROS1 [15] [%] | Percentage inhibition PRKAA (PKA) [16] [%] | Percentage inhibition FGFR2 [17] [%] | Percentage inhibition AURKA (Aurora A) [18] [%] | Percentage inhibition FLT4 (VEGFR3) [19] [%] | Percentage inhibition MERTK (cMER) [20] [%] | also measured
CN1CCN(Cc2cccc(-c3cnc4[nH]cc(-c5cc(NC(=O)Nc6ccccc6)ccc5F)c4c3)c2)CC1 [Compound 3] | greater than or equal to 150 nM | 24 | 8 | 27 | 17 | 19 | 21 | 41 | 11 | 7 | 4 | 13 | 10 | 19 | 18 | 7 | 37 | 14 | 37 | 75 | Percentage inhibition JAK2 [21]: 13%; Percentage inhibition BTK [22]: 10%; Percentage inhibition NTRK2 (TRKB) [23]: 94%; Percentage inhibition MET (cMet) [24]: 16%; Percentage inhibition KIT [25]: 15%; Percentage inhibition TYRO3 (RSE) [26]: 19%; Percentage inhibition TEK (Tie2) [27]: 27%; Percentage inhibition ROCK2 [28]: 9%; Percentage inhibition CSF1R (FMS) [29]: 26%; Percentage inhibition JAK3 [30]: 13%; Percentage inhibition AURKB (Aurora B) [31]: 38%; Percentage inhibition LCK [32]: 42%; Percentage inhibition NUK1 (ARK5) [33]: 14%; Percentage inhibition NTRK1 (TRKA) [34]: 69%; Percentage inhibition MAPK1 (ERK2) [35]: 6%; Percentage inhibition KDR (VEGFR2) [36]: 55%
CN1CCN(Cc2cccc(-c3cnc4[nH]cc(-c5cc(CNCCc6ccc(O)cc6)ccc5F)c4c3)c2)CC1 [Compound 1] | greater than or equal to 150 nM | 22 | 7 | 43 | 45 | 53 | 57 | 38 | 18 | 5 | 43 | 33 | 19 | 37 | 64 | 8 | 58 | 14 | 64 | 98 | IC50 [1]: 198 nM; active on infectious model ZIKV [1]: ACTIVE; Percentage inhibition JAK2 [21]: 19%; Percentage inhibition BTK [22]: 12%; Percentage inhibition NTRK2 (TRKB) [23]: 61%; Percentage inhibition MET (cMet) [24]: 15%; Percentage inhibition KIT [25]: 8%; Percentage inhibition TYRO3 (RSE) [26]: 51%; Percentage inhibition TEK (Tie2) [27]: 13%; Percentage inhibition ROCK2 [28]: 16%; Percentage inhibition CSF1R (FMS) [29]: 62%; Percentage inhibition JAK3 [30]: 42%; Percentage inhibition AURKB (Aurora B) [31]: 41%; Percentage inhibition LCK [32]: 50%; Percentage inhibition NUK1 (ARK5) [33]: 74%; Percentage inhibition NTRK1 (TRKA) [34]: 53%; Percentage inhibition MAPK1 (ERK2) [35]: 11%; Percentage inhibition KDR (VEGFR2) [36]: 85%
CN1CCN(Cc2cccc(-c3cnc4[nH]cc(-c5cc(CNCc6ccccc6)ccc5F)c4c3)c2)CC1 [Compound 2] | greater than or equal to 150 nM | 33 | 12 | 20 | 12 | 19 | 31 | 16 | 15 | 5 | 14 | 28 | 16 | 30 | 77 | 6 | 25 | 11 | 33 | 96 | IC50 [1]: 25 nM; active on infectious model ZIKV [1]: ACTIVE; Percentage inhibition JAK2 [21]: 23%; Percentage inhibition BTK [22]: 10%; Percentage inhibition NTRK2 (TRKB) [23]: 103%; Percentage inhibition MET (cMet) [24]: 92%; Percentage inhibition KIT [25]: 49%; Percentage inhibition TYRO3 (RSE) [26]: 67%; Percentage inhibition TEK (Tie2) [27]: 88%; Percentage inhibition ROCK2 [28]: 5%; Percentage inhibition CSF1R (FMS) [29]: 41%; Percentage inhibition JAK3 [30]: 18%; Percentage inhibition AURKB (Aurora B) [31]: 20%; Percentage inhibition LCK [32]: 63%; Percentage inhibition NUK1 (ARK5) [33]: 16%; Percentage inhibition NTRK1 (TRKA) [34]: 96%; Percentage inhibition MAPK1 (ERK2) [35]: 6%; Percentage inhibition KDR (VEGFR2) [36]: 68%

Reference: patent US20240293400A1, “NOVEL AZAINDOLE DERIVATIVES AS ANTIVIRAL AGENTS” (Centre National de la Recherche Scientifique, priority 2021, published 2024)
